Patent US20260028343A1, “Substituted Imidazopyrazine Compounds as Ligand Directed Degraders of IRAK3” (Celgene Corporation, priority 2022, published 2026)

Molecular target: T1, IRAK3-ePL (Homo sapiens, UniProt Q9Y616)
T1 construct: expressed in transfected cells; host or cells: 293T CRBN OE / GSPT1 G575N KI cells, lentiviral transduction, puromycin selection
Test: IRAK3-ePL Overexpressing Degradation Assay
Type: cell-based
Conditions: IRAK3-ePL Lenti-X 293T CRBN/GSPT1 G575N cells, overnight incubation; for Dmax: HEK-293T, top dose 10 μM, maximum percentage loss of target protein; for DC50: read-out: IRAK3 ePL degradation EC50
Procedure: Stable cell lines were generated by the following protocol. 3×10^5 Lenti-X 293T cells (Clonetech) were plated in 0.8 mL of media in a 12-well plate and incubated overnight at 37° C./5% CO2. Packaging plasmid (0.4 μg, pMD), envelope plasmid (0.4 μg, pSP), and lentiviral transfer IRAK3-ePL plasmid (0.8 μg, IRAK3 sequence NM_007199.3) were mixed in 0.1 mL of Opti-MEM and incubated for 5 min. Simultaneously, 2.4 μL of Lipofectamine 2000 (Invitrogen) was added to 0.1 mL of Opti-MEM (Gibco) and incubated for 5 min. The plasmid DNA and lipofectamine were combined and the mixture was allowed to incubate for 20 min.DNA:Lipofectamine Opti-MEM mixtures were then added to previously plated cells dropwise and the cells were incubated for ˜16 h at 37° C./5% CO2. Following incubation, the media was removed and 1.2 mL of fresh media was added per well. Lenti-X 293T cells were incubated for ˜30 h at 37° C./5% CO2. 0.5×10^6 293T^CRBN OE/GSPT1 G575N KI cells were plated in 0.5 mL of media/well of a 12-well plate and incubated for ˜16 h at 37° C./5% CO2. Following incubation, media was removed from the Lenti-X 293T wells and passed through a […]. Part of the viral supernatant was used to transduce cells and the rest was stored at −80° C. Viruses were then added individually (0.5 mL virus) to each well of the 293T^CRBN OE/GSPT1 G575N KI cells, followed by addition of polybrene (10 mg/mL Millipore) to each well at a final concentration of 5.0 μg/mL. Cells were incubated for ˜24 h at 37° C./5% CO2. After aspirating media off plates, cells were washed with DPBS, trypsinized and plated in a 10 cm dish in 15 mL of media and 1 μg/mL puromycin. Following incubation of cells for ˜72 h at 37° C./5% CO2, media was aspirated off plates, and cells were washed with DPBS and trypsinized. The cells were plated in a 15 cm dish in 40 mL of media with 1.0 μg/mL Puromycin (Gibco) and incubated for ˜72 h at 37° C./5% CO2. Following incubation, media was removed and cells were washed with DPBS and trypsinized. The majority of cells were resuspended in Invitrogen freezing media and stored away (˜6-8×10^6 cells/vial).
IRAK3-ePL cellular dose response curve degradation assays were performed by the following protocol. Compounds to be tested were dispensed into a white 384-well tissue-culture treated plate using an acoustic liquid handler. Dilutions were prepared based on a 25 μL assay volume in duplicate 10 point 3-fold serial dilutions starting with a 10 μM dose. Negative control wells were included, which only contain 0.2% DMSO to calculate 100% signal. Positive control wells containing 30 μM Ataluren (luciferase inhibitor) were included to calculate the background signal level. All wells were backfilled to a final DMSO concentration of 0.2% to ensure DMSO uniformity across wells. IRAK3-ePL expressing cells (IRAK3-ePL Lenti-X 293T^CRBN/GSPT1 G575N) were washed, trypsinized, counted, and resuspended in fresh DMEM (Gibco) to give a cell concentration of 200,000 cells/mL. 25 μL of cells (5,000 cells/well) were dispensed into the wells of the 384-well plate prespotted with compounds in the previous step and incubated overnight at 37° C./5% CO2. Following incubation, the 384-well plate was taken out of the incubator and left at room temperature for 30 min. InCELL hunter reagent was prepared according to manufacturer's instructions (EA reagent, lysis buffer, and substrate reagent in a 1:1:4 ratio, Cat #96-0002, DiscoverX), which was added to the 384-well plate 25 μL per well. Following the incubation of the plate for 1 h at room temperature, the luminescence signal was read using a ViewLux plate reader. Data was processed and analyzed in ActivityBase software. In short, the average luminescence values of the positive control wells were subtracted from the rest of the wells for background correction, and all luminescence values were normalized to the DMSO control wells. The average value of the DMSO control wells was set to equal 100% of the relative IRAK3-ePL protein levels. […]

Dmax | DC50 | SMILES
11% | – | Cc1cccc(-c2cnc(Nc3ccc(N4CCN(C(=O)COc5cccc6c5C(=O)N(C5CCC(=O)NC5=O)C6=O)CC4)cc3)c3nccn23)c1 (stereo not drawn) [Compound 1, 2-(2,6-Dioxopiperidin-3-yl)-4-(2-oxo-2-(4-(4-((5-(m-tolyl)imidazo[1,2-a]pyrazin-8-yl)amino)phenyl)piperazin-1-yl)ethoxy)isoindoline-1,3-dione]
10% | – | Cc1cccc(-c2cnc(Nc3ccc(N4CCN(C(=O)CCCNC(=O)COc5cccc6c5C(=O)N(C5CCC(=O)NC5=O)C6=O)CC4)cc3)c3nccn23)c1 (stereo not drawn) [Compound 2, 2-((2-(2,6-Dioxopiperidin-3-yl)-1,3-dioxoisoindolin-4-yl)oxy)-N-(4-oxo-4-(4-(4-((5-(m-tolyl)imidazo[1,2-a]pyrazin-8-yl)amino)phenyl)piperazin-1-yl)butyl)acetamide]
14% | – | Cc1cccc(-c2cnc(Nc3ccc(N4CCN(C(=O)CCOCCNC(=O)COc5cccc6c5C(=O)N(C5CCC(=O)NC5=O)C6=O)CC4)cc3)c3nccn23)c1 (stereo not drawn) [Compound 3, 2-((2-(2,6-Dioxopiperidin-3-yl)-1,3-dioxoisoindolin-4-yl)oxy)-N-(2-(3-oxo-3-(4-(4-((5-(m-tolyl)imidazo[1,2-a]pyrazin-8-yl)amino)phenyl)piperazin-1-yl)propoxy)ethyl)acetamide]
22% | – | Cc1cccc(-c2cnc(Nc3ccc(N4CCN(C(=O)COc5ccc6c(c5)C(=O)N(C5CCC(=O)NC5=O)C6=O)CC4)cc3)c3nccn23)c1 (stereo not drawn) [Compound 4, 2-(2,6-Dioxopiperidin-3-yl)-5-(2-oxo-2-(4-(4-((5-(m-tolyl)imidazo[1,2-a]pyrazin-8-yl)amino)phenyl)piperazin-1-yl)ethoxy)isoindoline-1,3-dione]
21% | – | Cc1cccc(-c2cnc(Nc3ccc(N4CCN(C(=O)CCCNC(=O)COc5ccc6c(c5)C(=O)N(C5CCC(=O)NC5=O)C6=O)CC4)cc3)c3nccn23)c1 (stereo not drawn) [Compound 5, 2-((2-(2,6-Dioxopiperidin-3-yl)-1,3-dioxoisoindolin-5-yl)oxy)-N-(4-oxo-4-(4-(4-((5-(m-tolyl)imidazo[1,2-a]pyrazin-8-yl)amino)phenyl)piperazin-1-yl)butyl)acetamide]
39% | – | Cc1cccc(-c2cnc(Nc3ccc(N4CCN(C(=O)CCOCCNC(=O)COc5ccc6c(c5)C(=O)N(C5CCC(=O)NC5=O)C6=O)CC4)cc3)c3nccn23)c1 (stereo not drawn) [Compound 6, 2-((2-(2,6-Dioxopiperidin-3-yl)-1,3-dioxoisoindolin-5-yl)oxy)-N-(2-(3-oxo-3-(4-(4-((5-(m-tolyl)imidazo[1,2-a]pyrazin-8-yl)amino)phenyl)piperazin-1-yl)propoxy)ethyl)acetamide]
51% | 1100 nM | Cc1cccc(-c2cnc(Nc3ccc(N4CCN(CCNC(=O)COc5ccc6c(c5)C(=O)N(C5CCC(=O)NC5=O)C6=O)CC4)cc3)c3nccn23)c1 (stereo not drawn) [Compound 7, 2-((2-(2,6-Dioxopiperidin-3-yl)-1,3-dioxoisoindolin-5-yl)oxy)-N-(2-(4-(4-((5-(m-tolyl)imidazo[1,2-a]pyrazin-8-yl)amino)phenyl)piperazin-1-yl)ethyl)acetamide]
78% | 17 nM | Cc1cccc(-c2cnc(Nc3cnn(C4CCN(CCNC(=O)COc5ccc6c(c5)C(=O)N(C5CCC(=O)NC5=O)C6=O)CC4)c3)c3nccn23)c1 (stereo not drawn) [Compound 8, 2-((2-(2,6-Dioxopiperidin-3-yl)-1,3-dioxoisoindolin-5-yl)oxy)-N-(2-(4-(4-((5-(m-tolyl)imidazo[1,2-a]pyrazin-8-yl)amino)-1H-pyrazol-1-yl)piperidin-1-yl)ethyl)acetamide]
18% | – | Cc1cccc(-c2cnc(Nc3cccc(C4CCN(CCNC(=O)COc5ccc6c(c5)C(=O)N(C5CCC(=O)NC5=O)C6=O)CC4)c3)c3nccn23)c1 (stereo not drawn) [Compound 9, 2-((2-(2,6-Dioxopiperidin-3-yl)-1,3-dioxoisoindolin-5-yl)oxy)-N-(2-(4-(3-((5-(m-tolyl)imidazo[1,2-a]pyrazin-8-yl)amino)phenyl)piperidin-1-yl)ethyl)acetamide]
17% | – | Cc1cccc(-c2cnc(Nc3ccc(C4CCN(CCNC(=O)COc5ccc6c(c5)C(=O)N(C5CCC(=O)NC5=O)C6=O)CC4)cc3)c3nccn23)c1 (stereo not drawn) [Compound 10, 2-((2-(2,6-Dioxopiperidin-3-yl)-1,3-dioxoisoindolin-5-yl)oxy)-N-(2-(4-(4-((5-(m-tolyl)imidazo[1,2-a]pyrazin-8-yl)amino)phenyl)piperidin-1-yl)ethyl)acetamide]
22% | – | Cc1cccc(-c2cnc(Nc3cccc(N4CCN(CCNC(=O)COc5ccc6c(c5)C(=O)N(C5CCC(=O)NC5=O)C6=O)CC4)c3)c3nccn23)c1 (stereo not drawn) [Compound 11, 2-((2-(2,6-Dioxopiperidin-3-yl)-1,3-dioxoisoindolin-5-yl)oxy)-N-(2-(4-(3-((5-(m-tolyl)imidazo[1,2-a]pyrazin-8-yl)amino)phenyl)piperazin-1-yl)ethyl)acetamide]
76% | 28 nM | Cc1cccc(-c2cnc(Nc3cnn(C4CCN(C5CCC6(CC5)CCN(C(=O)c5ccc7c(c5)CN(C5CCC(=O)NC5=O)C7=O)CC6)CC4)c3)c3nccn23)c1 (stereo not drawn) [Compound 12, 3-(1-Oxo-5-(9-(4-(4-((5-(m-tolyl)imidazo[1,2-a]pyrazin-8-yl)amino)-1H-pyrazol-1-yl)piperidin-1-yl)-3-azaspiro[5.5]undecane-3-carbonyl)isoindolin-2-yl)piperidine-2,6-dione]
